Data: PubChem BioAssay (NCI)
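GI50: concentration for 50% inhibition of growth. TGI marks complete inhibition of growth.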

What was measured:
Assay in all cases: inhibition of tumour cell growth, NCI panel, 384-well format
[1] = system: SNB-75 CNS
[2] = system: COLO 205 colon
[3] = system: SR leukemia
[4] = system: K-562 leukemia
[5] = system: ACHN renal
[6] = system: U251 glioblastoma
[7] = system: SK-MEL-5 melanoma
[8] = system: NCI-H226 lung
[9] = system: IGROV1 ovarian
[10] = system: HL-60(TB) leukemia
[11] = system: SF-295 CNS
[12] = system: MCF7 breast
[13] = system: RXF 393 renal
[14] = system: UACC-62 melanoma
[15] = system: KM12 colon
[16] = system: A498 renal
[17] = system: HOP-62 NSCLC
[18] = system: BT-549 breast
[19] = system: HCC-2998 colon
[20] = system: A549 NSCLC
[21] = system: SF-268 CNS
[22] = system: PC-3 prostate
[23] = system: 786-0 renal
[24] = system: MALME-3M melanoma
[25] = system: OVCAR-3 ovarian
[26] = system: SF-539 CNS
[27] = system: CAKI-1 renal
[28] = system: SK-MEL-2 melanoma
[29] = system: SW-620 colon
[30] = system: DU-145 prostate
[31] = system: MDA-MB-435 melanoma
[32] = system: UACC-257 melanoma
[33] = system: OVCAR-4 ovarian
[34] = system: SK-OV-3 ovarian
[35] = system: NCI-H460 NSCLC
[36] = system: HS 578T breast
[37] = system: MDA-MB-468 breast
[38] = system: EKVX NSCLC
[39] = system: NCI-H322M lung
[40] = system: NCI-H23 lung
[41] = system: NCI-H522 lung
[42] = system: CCRF-CEM leukemia
[43] = system: SK-MEL-28 melanoma
[44] = system: MDA-MB-231 breast
[45] = system: HT29 colon
[46] = system: RPMI-8226 leukemia
[47] = system: TK-10 renal
[48] = system: HOP-92 NSCLC
[49] = system: MOLT-4 leukemia
[50] = system: OVCAR-5 ovarian
[51] = system: T-47D breast
[52] = system: HCT-116 colon
[53] = system: M14 melanoma
[54] = system: SNB-19 CNS
[55] = system: NCI/ADR-RES ovarian
[56] = system: UO-31 renal
[57] = system: HCT-15 colon

SMILES: CS(=O)(=O)c1ccc(-c2cnc(N)c(C(=O)Nc3ccccc3)n2)cc1
- GI50 [1]: 16.6 µM
- TGI [1]: > 100 µM
- GI50 [2]: 29.5 µM
- TGI [2]: > 100 µM
- GI50 [3]: 0.603 µM
- TGI [3]: 4.57 µM
- GI50 [4]: 4.62 µM
- TGI [4]: > 100 µM
- GI50 [5]: 3.02 µM
- TGI [5]: 16.1 µM
- GI50 [6]: 6.52 µM
- TGI [6]: > 100 µM
- GI50 [7]: 16.1 µM
- TGI [7]: > 100 µM
- GI50 [8]: 46.8 µM
- TGI [8]: > 100 µM
- GI50 [9]: 2.9 µM
- TGI [9]: > 100 µM
- GI50 [10]: 3.34 µM
- TGI [10]: 9.07 µM
- GI50 [11]: 7.75 µM
- TGI [11]: > 100 µM
- GI50 [12]: 2.78 µM
- TGI [12]: > 100 µM
- GI50 [13]: 6.56 µM
- TGI [13]: 43.4 µM
- GI50 [14]: 18.9 µM
- TGI [14]: > 100 µM
- GI50 [15]: 40 µM
- TGI [15]: > 100 µM
- GI50 [16]: 2.78 µM
- TGI [16]: 28.6 µM
- GI50 [17]: 7.72 µM
- TGI [17]: > 100 µM
- GI50 [18]: 2.6 µM
- TGI [18]: 11.5 µM
- GI50 [19]: 0.543 µM
- TGI [19]: 9.37 µM
- GI50 [20]: 5.47 µM
- TGI [20]: > 100 µM
- GI50 [21]: > 100 µM
- TGI [21]: > 100 µM
- GI50 [22]: 15 µM
- TGI [22]: > 100 µM
- GI50 [23]: 3.11 µM
- TGI [23]: 65.7 µM
- GI50 [24]: 37.2 µM
- TGI [24]: > 100 µM
- GI50 [25]: 12.1 µM
- TGI [25]: > 100 µM
- GI50 [26]: 5.27 µM
- TGI [26]: > 100 µM
- GI50 [27]: 5.25 µM
- TGI [27]: 18.4 µM
- GI50 [28]: 5.35 µM
- TGI [28]: 13.2 µM
- GI50 [29]: > 100 µM
- TGI [29]: > 100 µM
- GI50 [30]: 4.53 µM
- TGI [30]: > 100 µM
- GI50 [31]: > 100 µM
- TGI [31]: > 100 µM
- GI50 [32]: > 100 µM
- TGI [32]: > 100 µM
- GI50 [33]: 11.9 µM
- TGI [33]: 93 µM
- GI50 [34]: 3.68 µM
- TGI [34]: 40 µM
- GI50 [35]: 3.73 µM
- TGI [35]: > 100 µM
- GI50 [36]: 4.54 µM
- TGI [36]: 49.9 µM
- GI50 [37]: 2.6 µM
- TGI [37]: > 100 µM
- GI50 [38]: > 100 µM
- TGI [38]: > 100 µM
- GI50 [39]: 14.9 µM
- TGI [39]: > 100 µM
- GI50 [40]: 3.02 µM
- TGI [40]: 58.7 µM
- GI50 [41]: 5.61 µM
- TGI [41]: > 100 µM
- GI50 [42]: 1.51 µM
- TGI [42]: 3.01 µM
- GI50 [43]: > 100 µM
- TGI [43]: > 100 µM
- GI50 [44]: 62.3 µM
- TGI [44]: > 100 µM
- GI50 [45]: 3.76 µM
- TGI [45]: > 100 µM
- GI50 [46]: 3.12 µM
- TGI [46]: > 100 µM
- GI50 [47]: 2.75 µM
- TGI [47]: 18.7 µM
- GI50 [48]: 4.58 µM
- TGI [48]: > 100 µM
- GI50 [49]: 1.46 µM
- TGI [49]: 2.81 µM
- GI50 [50]: 33.6 µM
- TGI [50]: > 100 µM
- GI50 [51]: > 100 µM
- TGI [51]: > 100 µM
- GI50 [52]: > 100 µM
- TGI [52]: > 100 µM
- GI50 [53]: 5.68 µM
- TGI [53]: > 100 µM
- GI50 [54]: 28.2 µM
- TGI [54]: > 100 µM
- GI50 [55]: > 100 µM
- TGI [55]: > 100 µM
- GI50 [56]: 6.65 µM
- TGI [56]: 22.1 µM
- GI50 [57]: 3.32 µM
- TGI [57]: > 100 µM
